Source: patent publication US9938322B2, “β-hairpin peptidomimetics” (priority 2013, dated 2018)
Where a SMILES comes first, the peptide text is derived from it. [ ]: non-standard residue; d: D form. Abu(4,4,4-F3) = N[C@@H](CC(F)(F)F)C(=O)O; Pro(3S-OH) = O=C(O)[C@H]1NCC[C@@H]1O; Dap(CONH2) = NC(=O)NC[C@H](N)C(=O)O; Cha = N[C@@H](CC1CCCCC1)C(=O)O; Chg = N[C@H](C(=O)O)C1CCCCC1; Tle = CC(C)(C)[C@H](N)C(=O)O; Pip = O=C(O)[C@@H]1CCCCN1; dDab = NCC[C@@H](N)C(=O)O; Orn = NCCC[C@H](N)C(=O)O; Dab = NCC[C@H](N)C(=O)O; Nva = CCC[C@H](N)C(=O)O; Dap = NC[C@H](N)C(=O)O

tested on: human red blood cells (hRBC); experiment: Hemolysis of human red blood cells; type: cell-based; conditions: red cells of human, 1 h, 100
Method: Lyophilized peptides were weighed on a Microbalance (Mettler MT5) and dissolved in sterile water to a final concentration of 1 mg/ml. Stock solutions were kept at +4° C., light protected.
The peptides were tested for their hemolytic activity against human red blood cells (hRBC). Fresh hRBC were washed three times with phosphate buffered saline (PBS) and centrifuged for 10 min at 2000×g. Compounds (100 μg/ml) were incubated with 20% hRBC (v/v) for 1 h at 37° C. and shaking at 300 rpm. The final erythrocyte concentration was approximately 0.9×10^9 cells/ml. A value of 0% and 100% cell lyses, respectively, was determined by incubation of hRBC in the presence of PBS containing 0.001% acetic acid and 2.5% Triton X-100 in H2O, respectively. The samples were centrifuged, the supernatants were 8-fold diluted in PBS buffer and the optical densities (OD) were measured at 540 nm. The 100% lyses value (OD540H2O) gave an OD540 of approximately 0.5-1.0.
Percent hemolysis was calculated as follows: (OD540peptide/OD540H2O)×100%.

In order of rising “Hemolysis at 100 μg/ml” value:
1. CC(C)C[C@@H]1NC(=O)[C@@H]2CCCN2C(=O)[C@H]2CCCN2C(=O)[C@H](CO)NC(=O)[C@H]([C@@H](C)O)NC(=O)[C@H](C(C)(C)C)NC(=O)[C@H](CCN)NC(=O)[C@H](Cc2c[nH]c3ccccc23)NC(=O)[C@H](CCN)NC(=O)[C@@H](CCN)NC(=O)[C@H](CCCN)NC(=O)[C@H](CCN)NC(=O)[C@H](Cc2ccc(O)cc2)NC(=O)[C@H](CC(N)=O)NC1=O [compound 120] (cyclo(LNY[Dab][Orn][dDab][Dab]W[Dab][Tle]TS[dP]P))  0%
2. CC(C)C[C@@H]1NC(=O)[C@@H]2CCCN2C(=O)[C@H]2CCCN2C(=O)[C@H](CO)NC(=O)[C@H](CO)NC(=O)[C@H](C(C)(C)C)NC(=O)[C@H](CCN)NC(=O)[C@H](Cc2c[nH]c3ccccc23)NC(=O)[C@H](CCN)NC(=O)[C@H](CCN)NC(=O)[C@H](CCCN)NC(=O)[C@H](CCN)NC(=O)[C@H](CC2CCCCC2)NC(=O)[C@H](CO)NC1=O [compound 143] (cyclo(LS[Cha][Dab][Orn][Dab][Dab]W[Dab][Tle]SS[dP]P))  0%
3. C[C@@H]1NC(=O)[C@H](Cc2c[nH]c3ccccc23)NC(=O)[C@@H]2CCCN2C(=O)[C@H]2CCCN2C(=O)[C@H](CO)NC(=O)[C@H](C)NC(=O)[C@H](C(C)(C)C)NC(=O)[C@H](CCN)NC(=O)[C@H](Cc2c[nH]c3ccccc23)NC(=O)[C@H](CCN)NC(=O)[C@@H](CCN)NC(=O)[C@H](CCCN)NC(=O)[C@H](CCN)NC(=O)[C@H](Cc2c[nH]c3ccccc23)NC1=O [compound 75] (cyclo(WAW[Dab][Orn][dDab][Dab]W[Dab][Tle]AS[dP]P))  1%
4. CC(C)C[C@@H]1NC(=O)[C@@H]2CCCN2C(=O)[C@H]2CCCN2C(=O)[C@H](CO)NC(=O)[C@H](C)NC(=O)[C@H](C(C)(C)C)NC(=O)[C@H](CCN)NC(=O)[C@H](Cc2c[nH]c3ccccc23)NC(=O)[C@H](CCN)NC(=O)[C@@H](CCN)NC(=O)[C@H](CCCN)NC(=O)[C@H](CCN)NC(=O)[C@H](Cc2ccc(O)cc2)NC(=O)[C@H](CO)NC1=O [compound 36] (cyclo(LSY[Dab][Orn][dDab][Dab]W[Dab][Tle]AS[dP]P))  1%
5. COc1ccc(C[C@@H]2NC(=O)[C@H](CCN)NC(=O)[C@H](Cc3c[nH]c4ccccc34)NC(=O)[C@H](CCN)NC(=O)[C@@H](CCN)NC(=O)[C@H](CCCN)NC(=O)[C@H](CCN)NC(=O)[C@H](Cc3ccc(O)cc3)NC(=O)[C@H](CO)NC(=O)[C@H](CC(C)C)NC(=O)[C@@H]3CCCN3C(=O)[C@H]3CCCN3C(=O)[C@H](CO)NC(=O)[C@H](C)NC2=O)cc1 [compound 32] (cyclo(LSY[Dab][Orn][dDab][Dab]W[Dab]Y(Me)AS[dP]P))  1%
6. CC(C)[C@@H]1NC(=O)[C@@H]2CCCN2C(=O)[C@H]2CCCN2C(=O)[C@H](CO)NC(=O)[C@H](C)NC(=O)[C@H](C(C)(C)C)NC(=O)[C@H](CCN)NC(=O)[C@H](Cc2c[nH]c3ccccc23)NC(=O)[C@H](CCN)NC(=O)[C@@H](CCN)NC(=O)[C@H](CCCN)NC(=O)[C@H](CCN)NC(=O)[C@H](Cc2ccc(O)cc2)NC(=O)[C@H](C)NC1=O [compound 46] (cyclo(VAY[Dab][Orn][dDab][Dab]W[Dab][Tle]AS[dP]P))  1%
7. CC[C@H](C)[C@@H]1NC(=O)[C@@H]2CCCN2C(=O)[C@H]2CCCN2C(=O)[C@H](CO)NC(=O)[C@H](C)NC(=O)[C@H](C(C)(C)C)NC(=O)[C@H](CCN)NC(=O)[C@H](Cc2c[nH]c3ccccc23)NC(=O)[C@H](CCN)NC(=O)[C@H](CCN)NC(=O)[C@H](CCCN)NC(=O)[C@H](CCN)NC(=O)[C@H](CC2CCCCC2)NC(=O)[C@H](CO)NC1=O [compound 142] (cyclo(IS[Cha][Dab][Orn][Dab][Dab]W[Dab][Tle]AS[dP]P))  1%
8. C[C@@H]1NC(=O)[C@H](C(C)(C)C)NC(=O)[C@H](CCN)NC(=O)[C@H](Cc2c[nH]c3ccccc23)NC(=O)[C@H](CCN)NC(=O)[C@@H](CCN)NC(=O)[C@H](CCCN)NC(=O)[C@H](CCN)NC(=O)[C@H](Cc2ccc(O)cc2)NC(=O)[C@H](CO)NC(=O)[C@H](CC(F)(F)F)NC(=O)[C@@H]2CCCN2C(=O)[C@H]2CCCN2C(=O)[C@H](CO)NC1=O [compound 156] (cyclo([Abu(4,4,4-F3)]SY[Dab][Orn][dDab][Dab]W[Dab][Tle]AS[dP]P))  1%
9. CC[C@H](C)[C@@H]1NC(=O)[C@H](CCN)NC(=O)[C@H](Cc2c[nH]c3ccccc23)NC(=O)[C@H](CCN)NC(=O)[C@@H](CCN)NC(=O)[C@H](CCCN)NC(=O)[C@H](CCN)NC(=O)[C@H](Cc2ccc(O)cc2)NC(=O)[C@H](CO)NC(=O)[C@H]([C@@H](C)CC)NC(=O)[C@@H]2CCCN2C(=O)[C@H]2CCCN2C(=O)[C@H](CO)NC(=O)[C@H](C)NC1=O [compound 81] (cyclo(ISY[Dab][Orn][dDab][Dab]W[Dab]IAS[dP]P))  1%
10. CC(C)C[C@@H]1NC(=O)[C@@H]2CCCN2C(=O)[C@H]2CCCN2C(=O)[C@H]([C@@H](C)O)NC(=O)[C@H](C)NC(=O)[C@H](C(C)(C)C)NC(=O)[C@H](CCN)NC(=O)[C@H](Cc2c[nH]c3ccccc23)NC(=O)[C@H](CCN)NC(=O)[C@@H](CCN)NC(=O)[C@H](CCCN)NC(=O)[C@H](CCN)NC(=O)[C@H](Cc2ccc(O)cc2)NC(=O)[C@H](CO)NC1=O [compound 88] (cyclo(LSY[Dab][Orn][dDab][Dab]W[Dab][Tle]AT[dP]P))  1%
11. CC(C)C[C@@H]1NC(=O)[C@@H]2[C@@H](O)CCN2C(=O)[C@H]2CCCN2C(=O)[C@H](CO)NC(=O)[C@H](CNC(N)=O)NC(=O)[C@H](C(C)(C)C)NC(=O)[C@H](CCN)NC(=O)[C@H](Cc2c[nH]c3ccccc23)NC(=O)[C@H](CCN)NC(=O)[C@@H](CCN)NC(=O)[C@H](CCCN)NC(=O)[C@H](CCN)NC(=O)[C@H](CC2CCCCC2)NC(=O)[C@H](CO)NC1=O [compound 59] (cyclo([Cha][Dab][Orn][dDab][Dab]W[Dab][Tle][Dap(CONH2)]S[dP][Pro(3S-OH)]LS))  1%
12. CC(C)C[C@@H]1NC(=O)[C@@H]2CCCN2C(=O)[C@H]2CCCN2C(=O)[C@H](CO)NC(=O)[C@H](C)NC(=O)[C@H](C2CCCCC2)NC(=O)[C@H](CCN)NC(=O)[C@H](Cc2c[nH]c3ccccc23)NC(=O)[C@H](CCN)NC(=O)[C@@H](CCN)NC(=O)[C@H](CCCN)NC(=O)[C@H](CCN)NC(=O)[C@H](Cc2ccc(O)cc2)NC(=O)[C@H](C)NC1=O [compound 129] (cyclo(LAY[Dab][Orn][dDab][Dab]W[Dab][Chg]AS[dP]P))  1%
13. CC(C)C[C@@H]1NC(=O)[C@@H]2CCCN2C(=O)[C@H]2CCCN2C(=O)[C@H](CO)NC(=O)[C@H](C)NC(=O)[C@H](C(C)C)NC(=O)[C@H](CCN)NC(=O)[C@H](Cc2c[nH]c3ccccc23)NC(=O)[C@H](CCN)NC(=O)[C@@H](CCN)NC(=O)[C@H](CCCN)NC(=O)[C@H](CCN)NC(=O)[C@H](Cc2ccc(O)cc2)NC(=O)[C@H](CO)NC1=O [compound 35] (cyclo(LSY[Dab][Orn][dDab][Dab]W[Dab]VAS[dP]P))  1%
14. CCC[C@@H]1NC(=O)[C@@H]2CCCN2C(=O)[C@H]2CCCN2C(=O)[C@H](CO)NC(=O)[C@H](CO)NC(=O)[C@H](C(C)(C)C)NC(=O)[C@H](CCN)NC(=O)[C@H](Cc2c[nH]c3ccccc23)NC(=O)[C@H](CCN)NC(=O)[C@@H](CCN)NC(=O)[C@H](CCCN)NC(=O)[C@H](CCN)NC(=O)[C@H](Cc2ccc(O)cc2)NC(=O)[C@H](CO)NC1=O [compound 118] (cyclo([Nva]SY[Dab][Orn][dDab][Dab]W[Dab][Tle]SS[dP]P))  1%
15. CC[C@H](C)[C@@H]1NC(=O)[C@@H]2CCCN2C(=O)[C@H]2CCCN2C(=O)[C@H](CO)NC(=O)[C@H](C)NC(=O)[C@H](C(C)(C)C)NC(=O)[C@H](CCN)NC(=O)[C@H](Cc2c[nH]c3ccccc23)NC(=O)[C@H](CCN)NC(=O)[C@@H](CCN)NC(=O)[C@H](CCCN)NC(=O)[C@H](CCN)NC(=O)[C@H](Cc2ccc(O)cc2)NC(=O)[C@H](CO)NC1=O [compound 44] (cyclo(ISY[Dab][Orn][dDab][Dab]W[Dab][Tle]AS[dP]P))  2%
16. C[C@@H]1NC(=O)[C@H](C(C)(C)C)NC(=O)[C@H](CCN)NC(=O)[C@H](Cc2c[nH]c3ccccc23)NC(=O)[C@H](CCN)NC(=O)[C@@H](CCN)NC(=O)[C@H](CCCN)NC(=O)[C@H](CCN)NC(=O)[C@H](CC2CCCCC2)NC(=O)[C@H](CN)NC(=O)[C@H](Cc2c[nH]c3ccccc23)NC(=O)[C@@H]2CCCCN2C(=O)[C@H]2CCCN2C(=O)[C@H](CO)NC1=O [compound 63] (cyclo(AS[dP][Pip]W[Dap][Cha][Dab][Orn][dDab][Dab]W[Dab][Tle]))  3%
17. C[C@@H]1NC(=O)[C@H](CC2CCCCC2)NC(=O)[C@H](CCN)NC(=O)[C@H](Cc2c[nH]c3ccccc23)NC(=O)[C@H](CCN)NC(=O)[C@@H](CCN)NC(=O)[C@H](CCCN)NC(=O)[C@H](CCN)NC(=O)[C@H](Cc2ccc(O)cc2)NC(=O)[C@H](CO)NC(=O)[C@H](Cc2c[nH]c3ccccc23)NC(=O)[C@@H]2CCCN2C(=O)[C@H]2CCCN2C(=O)[C@H](CO)NC1=O [compound 70] (cyclo(WSY[Dab][Orn][dDab][Dab]W[Dab][Cha]AS[dP]P))  5%
18. CC(C)C[C@@H]1NC(=O)[C@@H]2CCCN2C(=O)[C@H]2CCCN2C(=O)[C@H](CO)NC(=O)[C@H](C)NC(=O)[C@H](C(C)(C)C)NC(=O)[C@H](CCN)NC(=O)[C@H](Cc2c[nH]c3ccccc23)NC(=O)[C@H](CCN)NC(=O)[C@@H](CCN)NC(=O)[C@H](CCCN)NC(=O)[C@H](CCN)NC(=O)[C@H](CC2CCCCC2)NC(=O)[C@H](CO)NC1=O [compound 135] (cyclo(LS[Cha][Dab][Orn][dDab][Dab]W[Dab][Tle]AS[dP]P))  5%
